Reference: patent US20100298141A1, “SUBSTITUTED PYRIDINE N-OXIDE HERBICIDES” (E. I. DU PONT DE NEMOURS AND COMPANY, priority 2007, published 2010)

Legend:
Experiment in all cases: Test F preemergence test
Settings in all cases: scale 0 to 100
dallisgrass = type: in vivo, Paspalum dilatatum
Summary of the method: (§1)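 Test chemicals were formulated in a non-phytotoxic solvent mixture with surfactant and applied preemergence to planted seeds or postemergence to sugarcane plants. Plants were kept in a greenhouse for 14 to 21 days, then visually evaluated against controls.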

Virginia dayflower = type: in vivo, Commelina virginica
Summary of the method: as §1

barnyardgrass = type: in vivo, Echinochloa crus-galli
Summary of the method: as §1

broadleaf signalgrass = type: in vivo, Brachiaria platyphylla
Summary of the method: as §1

common groundsel = type: in vivo, Senecio vulgaris
Summary of the method: as §1

guineagrass = type: in vivo, Panicum maximum
Summary of the method: as §1

bermudagrass = type: in vivo, Cynodon dactylon
Summary of the method: as §1

quackgrass = type: in vivo, Elytrigia repens
Summary of the method: as §1

common purslane = type: in vivo, Portulaca oleracea
Summary of the method: as §1

naked crabgrass = type: in vivo, Digitaria nuda
Summary of the method: as §1

common chickweed = type: in vivo, Stellaria media
Source text: Seeds of plant species selected from bermudagrass (Cynodon dactylon), Surinam grass (Brachiaria decumbens), large crabgrass (Digitaria sanguinalis), green foxtail (Setaria viridis), goosegrass (Eleusine indica), johnsongrass (Sorghum halepense), kochia (Kochia scoparia), pitted morningglory (Ipomoea lacunosa), purple nutsedge (Cyperus rotundus), common ragweed (Ambrosia elation), mustard (Brassica nigra), guineagrass (Panicum maximum), […] (Paspalum dilatatum), barnyardgrass (Echinochloa crus-galli), southern sandbur (Cenchrus echinatus), common sowthistle (Sonchus oleraceous), prickly […] spinosa), Italian ryegrass (Lolium multiflorum), common purslane (Portulaca oleracea), broadleaf signalgrass (Brachiaria platyphylla), common groundsel (Senecio vulgaris), common chickweed (Stellaria media), Virginia dayflower (Commelina virginica), annual bluegrass (Poa annua), naked crabgrass (Digitaria nuda), […] cochinchinensis), quackgrass (Elytrigia repens), Canada horseweed (Conyza canadensis), field bindweed (Convolvulus arvensis), […] (Bidens bipinnata), common mallow (Malva sylvestris), Russian thistle (Salsola kali), and sugarcane (Saccharum officinarum) were planted and treated preemergence with test chemicals formulated in a non-phytotoxic solvent mixture which included a surfactant. At a different time, sugarcane was treated with postemergence applications of some of the test chemicals formulated in the same manner. Plants were approximately 3- to 4-leaf stage for the postemergence treatments. Treated plants and controls were maintained in a greenhouse for 14 to 21 days, after which time all species were compared to controls and visually evaluated. […] A dash (-) response means no test result.

pitted morningglory = type: in vivo, Ipomoea lacunosa
Summary of the method: as §1

common mallow = type: in vivo, Malva sylvestris
Summary of the method: as §1

prickly sida = type: in vivo, Sida spinosa
Summary of the method: as §1

mustard = type: in vivo, Brassica nigra
Summary of the method: as §1

purple nutsedge = type: in vivo, Cyperus rotundus
Summary of the method: as §1

kochia = type: in vivo, Kochia scoparia
Summary of the method: as §1

annual bluegrass = type: in vivo, Poa annua
Summary of the method: as §1

Cn1nc(C(F)(F)F)c(CS(=O)(=O)c2cccc[n+]2[O-])c1OC(F)F [Compound 4]
15: Plant response rating, Signalgrass (broadleaf signalgrass; 16 g ai/ha, preemergence) | Plant response rating, Purslane (common purslane; 8 g ai/ha, preemergence) | Plant response rating, Purslane (common purslane; Preemergence, 16 g ai/ha)
0: Plant response rating, Dallisgrass (dallisgrass; 8 g ai/ha, preemergence) | Plant response rating, Dallisgrass (dallisgrass; Preemergence, 16 g ai/ha) | Plant response rating, Dayflower (Virginia dayflower; 8 g ai/ha, preemergence) | Plant response rating, Dayflower (Virginia dayflower; Preemergence, 16 g ai/ha) | Plant response rating, Signalgrass (broadleaf signalgrass; 8 g ai/ha, preemergence) | Plant response rating, Quackgrass (quackgrass; 8 g ai/ha, preemergence) | Plant response rating, Quackgrass (quackgrass; Preemergence, 16 g ai/ha) | Plant response rating, Morningglory (pitted morningglory; 8 g ai/ha, preemergence) | Morningglory plant response rating (pitted morningglory; 62 g ai/ha, Preemergence) | Plant response rating, Morningglory (pitted morningglory; Preemergence, 16 g ai/ha) | Plant response rating, Morningglory (pitted morningglory; Preemergence, 31 g ai/ha) | Plant response rating, Mallow (common mallow; 8 g ai/ha, preemergence) | Mallow plant response rating (common mallow; 62 g ai/ha, Preemergence) | Plant response rating, Mallow (common mallow; Preemergence, 16 g ai/ha) | Plant response rating, Mallow (common mallow; Preemergence, 31 g ai/ha) | Plant response rating, Prickly Sida (prickly sida; 8 g ai/ha, preemergence) | Prickly Sida plant response rating (prickly sida; 62 g ai/ha, Preemergence) | Plant response rating, Prickly Sida (prickly sida; Preemergence, 16 g ai/ha) | Plant response rating, Prickly Sida (prickly sida; Preemergence, 31 g ai/ha) | Plant response rating, Black Mustard (mustard; 8 g ai/ha, preemergence) | Plant response rating, Purple Nutsedge (purple nutsedge; 8 g ai/ha, preemergence) | Plant response rating, Kochia (kochia; 8 g ai/ha, preemergence) | Plant response rating, Kochia (kochia; Preemergence, 16 g ai/ha) | Plant response rating, Bluegrass (annual bluegrass; 8 g ai/ha, preemergence) | Plant response rating, Bluegrass (annual bluegrass; Preemergence, 16 g ai/ha)
20: Plant response rating, Bermudagrass (bermudagrass; 8 g ai/ha, preemergence) | Purslane plant response rating (common purslane; 62 g ai/ha, Preemergence) | Plant response rating, Purslane (common purslane; Preemergence, 31 g ai/ha) | Plant response rating, Black Mustard (mustard; Preemergence, 16 g ai/ha) | Plant response rating, Bluegrass (annual bluegrass; Preemergence, 31 g ai/ha)
80: Dallisgrass plant response rating (dallisgrass; 62 g ai/ha, Preemergence) | Barnyardgrass plant response rating (barnyardgrass; 62 g ai/ha, Preemergence) | Plant response rating, Barnyardgrass (barnyardgrass; Preemergence, 31 g ai/ha) | Signalgrass plant response rating (broadleaf signalgrass; 62 g ai/ha, Preemergence) | Plant response rating, Guineagrass (guineagrass; Preemergence, 16 g ai/ha) | Purple Nutsedge plant response rating (purple nutsedge; 62 g ai/ha, Preemergence)
98: Plant response rating, Bermudagrass (bermudagrass; Preemergence, 16 g ai/ha) | Black Mustard plant response rating (mustard; 62 g ai/ha, Preemergence) | Plant response rating, Black Mustard (mustard; Preemergence, 31 g ai/ha)
100: Groundsel plant response rating (common groundsel; 62 g ai/ha, Preemergence) | Plant response rating, Groundsel (common groundsel; Preemergence, 31 g ai/ha) | Guineagrass plant response rating (guineagrass; 62 g ai/ha, Preemergence) | Plant response rating, Guineagrass (guineagrass; Preemergence, 31 g ai/ha) | Bermudagrass plant response rating (bermudagrass; 62 g ai/ha, Preemergence) | Plant response rating, Bermudagrass (bermudagrass; Preemergence, 31 g ai/ha) | Crabgrass, Naked plant response rating (naked crabgrass; 62 g ai/ha, Preemergence) | Plant response rating, Crabgrass, Naked (naked crabgrass; Preemergence, 31 g ai/ha) | Chickweed plant response rating (common chickweed; 62 g ai/ha, Preemergence) | Plant response rating, Chickweed (common chickweed; Preemergence, 16 g ai/ha) | Plant response rating, Chickweed (common chickweed; Preemergence, 31 g ai/ha)
50: Plant response rating, Guineagrass (guineagrass; 8 g ai/ha, preemergence)
70: Plant response rating, Crabgrass, Naked (naked crabgrass; 8 g ai/ha, preemergence) | Plant response rating, Crabgrass, Naked (naked crabgrass; Preemergence, 16 g ai/ha)
35: Plant response rating, Dallisgrass (dallisgrass; Preemergence, 31 g ai/ha) | Plant response rating, Signalgrass (broadleaf signalgrass; Preemergence, 31 g ai/ha) | Plant response rating, Quackgrass (quackgrass; Preemergence, 31 g ai/ha)
75: Quackgrass plant response rating (quackgrass; 62 g ai/ha, Preemergence) | Kochia plant response rating (kochia; 62 g ai/ha, Preemergence) | Plant response rating, Kochia (kochia; Preemergence, 31 g ai/ha) | Bluegrass plant response rating (annual bluegrass; 62 g ai/ha, Preemergence)
60: Plant response rating, Chickweed (common chickweed; 8 g ai/ha, preemergence)
25: Plant response rating, Groundsel (common groundsel; Preemergence, 16 g ai/ha)
90: Dayflower plant response rating (Virginia dayflower; 62 g ai/ha, Preemergence) | Plant response rating, Dayflower (Virginia dayflower; Preemergence, 31 g ai/ha)
10: Plant response rating, Barnyardgrass (barnyardgrass; 8 g ai/ha, preemergence) | Plant response rating, Groundsel (common groundsel; 8 g ai/ha, preemergence)
65: Plant response rating, Barnyardgrass (barnyardgrass; Preemergence, 16 g ai/ha) | Plant response rating, Purple Nutsedge (purple nutsedge; Preemergence, 16 g ai/ha) | Plant response rating, Purple Nutsedge (purple nutsedge; Preemergence, 31 g ai/ha)
